Assay results published in PMC3898329, “Human junctophilin-2 undergoes a structural rearrangement upon binding PtdIns(3,4,5)P3 and the S101R mutation identified in hypertrophic cardiomyopathy obviates this response” (Biochemical Journal, 2013).
Where a chain is given by its changes, count along the chain named.

Tests used:
[1] = biological target: T1, full-length human JP2 (junctophilin-2) (Homo sapiens, UniProt Q9BR39); test: protein-lipid overlay; conditions: weak binding
T1 construct: gene JPH2; full-length, N-terminal MBP tag removed with PreScission protease; E. coli BL21; ~75 kDa on SDS/PAGE; stated as monomeric
T1 sequence (Q9BR39 1-696): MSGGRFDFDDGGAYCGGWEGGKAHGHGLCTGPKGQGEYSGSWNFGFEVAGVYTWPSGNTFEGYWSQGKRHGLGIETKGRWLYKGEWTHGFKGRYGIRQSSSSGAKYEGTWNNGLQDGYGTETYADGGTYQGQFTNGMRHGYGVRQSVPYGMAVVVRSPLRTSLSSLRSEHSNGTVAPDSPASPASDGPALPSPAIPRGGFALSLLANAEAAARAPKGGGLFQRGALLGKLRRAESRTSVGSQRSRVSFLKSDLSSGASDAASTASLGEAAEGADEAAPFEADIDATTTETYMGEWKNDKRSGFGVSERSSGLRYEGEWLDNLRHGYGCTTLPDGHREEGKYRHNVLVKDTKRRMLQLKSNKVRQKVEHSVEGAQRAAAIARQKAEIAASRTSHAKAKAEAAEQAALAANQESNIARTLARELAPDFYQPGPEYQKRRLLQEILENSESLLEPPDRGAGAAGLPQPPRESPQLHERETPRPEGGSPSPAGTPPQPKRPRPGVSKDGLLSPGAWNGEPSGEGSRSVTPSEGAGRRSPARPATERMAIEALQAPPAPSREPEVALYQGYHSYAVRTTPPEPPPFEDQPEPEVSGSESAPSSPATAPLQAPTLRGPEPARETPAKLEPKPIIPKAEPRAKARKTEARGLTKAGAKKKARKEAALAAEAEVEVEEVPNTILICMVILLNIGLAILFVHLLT

[2] = biological target: T1, full-length human JP2 (junctophilin-2); test: QCM-D, supported lipid bilayer, one-site isotherm; format: binding; conditions: read-out: DOPC/DOPE/POPC/DOPS (55:15:10:20, by vol.) JP2
From the text: (§1) QCM-D, supported lipid bilayer, one-site isotherm on full-length human JP2 (junctophilin-2)

[3] = biological target: T2, full-length human JP2 (junctophilin-2) (Homo sapiens, UniProt Q9BR39, S101R); test: QCM-D, supported lipid bilayer, one-site isotherm; format: binding; conditions: read-out: DOPC/DOPE/POPC/DOPS (55:15:10:20, by vol.) / S101R
T2 construct: gene JPH2; full-length, N-terminal MBP tag removed with PreScission protease; E. coli BL21; ~75 kDa on SDS/PAGE; stated as monomeric
T2 sequence (Q9BR39 1-696 S101R): T1 sequence (Q9BR39 1-696) with S101R
From the text: as §1

[4] = biological target: T3, JP2^1–452 (N-terminal domain) (Homo sapiens, UniProt Q9BR39); test: QCM-D, supported lipid bilayer, one-site isotherm; format: binding; conditions: read-out: DOPC/DOPE/POPC/DOPS (55:15:10:20, by vol.) / JP2^1-452
T3 construct: gene JPH2; N-terminal segment, residues 1-452, N-terminal MBP tag removed with PreScission protease; E. coli BL21; ~50 kDa on SDS/PAGE
T3 sequence (Q9BR39 1-452): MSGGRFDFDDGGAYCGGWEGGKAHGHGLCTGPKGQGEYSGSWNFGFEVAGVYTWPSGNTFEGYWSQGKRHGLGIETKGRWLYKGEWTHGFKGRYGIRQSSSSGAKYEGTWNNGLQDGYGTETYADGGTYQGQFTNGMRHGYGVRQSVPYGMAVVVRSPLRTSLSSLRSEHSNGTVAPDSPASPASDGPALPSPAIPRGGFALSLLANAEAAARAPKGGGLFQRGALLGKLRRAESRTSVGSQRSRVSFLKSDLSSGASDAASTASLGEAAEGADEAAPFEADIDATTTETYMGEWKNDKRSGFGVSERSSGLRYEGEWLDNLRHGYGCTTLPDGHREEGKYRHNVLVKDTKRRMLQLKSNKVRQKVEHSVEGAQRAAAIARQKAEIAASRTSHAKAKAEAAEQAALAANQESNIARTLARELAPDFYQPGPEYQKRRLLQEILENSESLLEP
From the text: QCM-D, supported lipid bilayer, one-site isotherm on JP2^1–452 (N-terminal domain)

| Structure (SMILES) | protein-lipid overlay [1] | Kd [2] | Kd [3] | Kd [4] |
| --- | --- | --- | --- | --- |
| CCCCCCCC/C=C\CCCCCCCC(=O)OC[C@H](COP(=O)(O)OCC(O)CO)OC(=O)CCCCCCC/C=C\CCCCCCCC (stereo partly shown) [DOPG, 1,2-dioleoyl-sn-glycero-3-phosphoglycerol] | there is only weak binding of JP2 to DOPG |  |  |  |
| CCCCCCCC/C=C\CCCCCCCC(=O)OC[C@H](COP(=O)(O)OC[C@H](N)C(=O)O)OC(=O)CCCCCCC/C=C\CCCCCCCC [DOPS, 1,2-dioleoyl-sn-glycero-3-phospho-L-serine] |  | 483 ± 54 nM | 371 ± 31 nM | 992 ± 80 nM |
